Experimental data as given in patent publication US4318916A, “Antibiotic PS-5 and derivatives having β-lactamase inhibitory activity and production thereof” (Sanraku-Ocean Co., Ltd., priority 1977, dated 1982).
≈ marks a conversion by molar mass, not a printed value. Like-named read-outs stand apart in the source and are kept apart here.

Legend:
Assay type in all cases: cell-based
[1] = test system: Sarcina lutea S-19; assay: MIC by broth dilution (Table 13); conditions: Micrococcus luteus, S19, 20 h
Description: (§1) The MIC (minimum inhibitory concentration) values of the compound were determined on various pathogenic microorganisms including several resistant strains, utilizing the broth dilution method in BRAIN HEART INFUSION BROTH `Eiken` (EIKEN CHEMICAL CO., LTD.).
(§2) The results were read after incubation at 35° C. for 20 hours. The minimum inhibitory concentration (MIC) values means the lowest concentration unit of the tritylation product of the antibiotic PS-5 was no growth of the corresponding microorganism was observed under the above described conditions. As the control antibiotics,the solutions of ampicillin and cephaloridine were prepared in BRAIN HEART INFUSION BROTH `Eiken` (pH 7.0) at a concentration of 100 μg/ml and treated same as the test compound of the present invention.

[2] = test system: Staphylococcus aureus Smith; assay: MIC by broth dilution (Table 13); conditions: 20 h
Description: as §1, §2

[3] = test system: Diplococcus pneumoniae Type III; assay: MIC by broth dilution (Table 13); conditions: Streptococcus pneumoniae, 20 h
Description: as §1, §2

[4] = test system: Alcaligenes faecalis B-326; assay: MIC by broth dilution (Table 13); conditions: B326, 20 h
Description: as §1, §2

[5] = test system: Citrobacter freundii E-9; assay: MIC by broth dilution (Table 13); conditions: E9, 20 h
Description: as §1, §2

[6] = test system: Pseudomonas aeruginosa P-1; assay: MIC by broth dilution (Table 13); conditions: P1, 20 h
Description: as §1, §2

[7] = test system: Enterobacter sp. E-8; assay: MIC by broth dilution (Table 13); conditions: SP.E8, 20 h
Description: as §1, §2

[8] = test system: Proteus vulgaris P-5; assay: MIC by broth dilution (Table 13); conditions: P5, 20 h
Description: as §1, §2

[9] = test system: Proteus rettgeri P-7; assay: MIC by broth dilution (Table 13); conditions: Providencia rettgeri, P7, 20 h
Description: as §1, §2

[10] = test system: Staphylococcus aureus FDA 209p; assay: MIC by broth dilution (Table 13); conditions: FDA209P, 20 h
Description: as §1, §2

[11] = test system: Streptococcus pyogenes NY-5; assay: MIC by broth dilution (Table 13); conditions: NY5, 20 h
Description: as §1, §2

[12] = test system: Proteus mirabilis P-6; assay: MIC by broth dilution (Table 13); conditions: P6, 20 h
Description: as §1, §2

[13] = test system: Klebsiella pneumoniae K-2; assay: MIC by broth dilution (Table 13); conditions: K2, 20 h
Description: as §1, §2

[14] = test system: Alcaligenes faecalis B-326; assay: MIC by broth dilution (Table 8); conditions: B326, 20 h, read-out: Minimum inhibitory concentration
Description: (§3) The MIC values of antibiotic PS-5 sodium salt were determined on various pathogenic microorganisms including resistant strains by the broth dilution method utilizing the BRAIN HEART INFUSION BROTH `Eiken` (EIKEN CHEMICAL CO., LTD.).
(§4) The antibiotic PS-5 sodium salt was dissolved in BRAIN HEART INFUSION BROTH `Eiken` (EIKEN CHEMICAL CO., LTD.) (pH 7.0) at concentration in the range of 5-50 μg/ml, from which appropriate dilution series were made in the same liquid medium. The microorganisms listed in Table 8 were cultivated for 18 hours in BRAIN HEART INFUSION BROTH `Eiken` at 28° C. and inoculated into the said dilution series of antibiotic PS-5 at a final inoculum size of 1×10^5 cells/ml. The cultures were allowed to stand at 35° C. for 20 hours, and then the growth of the microorganisms was read at each dilution of antibiotic PS-5. The minimum inhibitory concentration (MIC) represents the smallest concentration of the antibiotic PS-5 (sodium salt) where no propagation of the relevant microorganism was visually confirmed. As the controls, two known beta-lactam antibiotics, cephaloridine and cefoxitin were dissolved in brain heart infustion broth at pH 7.0 at concentrations ranging from 1 μg/ml to 100 μ g/ml and then diluted to make several dilution series in the above mentioned liquid medium. These samples were treated as described above for the MIC determinations. In addition to the MIC values of antibiotic PS-5, those of cephaloridine and cefoxitin are included for reference.

[15] = test system: Citrobacter freundii E-9; assay: MIC by broth dilution (Table 8); conditions: E9, 20 h, read-out: Minimum inhibitory concentration
Description: as §3, §4

[16] = test system: Enterobacter sp. E-8; assay: MIC by broth dilution (Table 8); conditions: SP.E8, 20 h, read-out: Minimum inhibitory concentration
Description: as §3, §4

[17] = test system: Staphylococcus aureus Russell; assay: MIC by broth dilution (Table 8); conditions: 20 h, read-out: Minimum inhibitory concentration
Description: as §3, §4

[18] = test system: Proteus vulgaris P-5; assay: MIC by broth dilution (Table 8); conditions: P5, 20 h, betalactamase producer, read-out: Minimum inhibitory concentration
Description: as §3, §4

[19] = test system: Serratia marcescens S-18; assay: MIC by broth dilution (Table 8); conditions: S18, 20 h, betalactamase producer, read-out: Minimum inhibitory concentration
Description: as §3, §4

[20] = test system: Providencia sp. P-8; assay: MIC by broth dilution (Table 8); conditions: SP.P8, 20 h, resistant to kanamycin, gentamicin and tobramycin, read-out: Minimum inhibitory concentration
Description: as §3, §4

[21] = test system: Enterobacter cloacae E-16; assay: MIC by broth dilution (Table 8); conditions: E16, 20 h, betalactamase producer, read-out: Minimum inhibitory concentration
Description: as §3, §4

[22] = test system: Proteus sp. P-22; assay: MIC by broth dilution (Table 8); conditions: 20 h, read-out: Minimum inhibitory concentration
Description: as §3, §4

[23] = test system: Enterobacter aerogenes E-19; assay: MIC by broth dilution (Table 8); conditions: Klebsiella aerogenes, E19, 20 h, betalactamase producer, read-out: Minimum inhibitory concentration
Description: as §3, §4

[24] = test system: Proteus rettgeri P-7; assay: MIC by broth dilution (Table 8); conditions: Providencia rettgeri, P7, 20 h, resistant to gentamicin and tobramycin, read-out: Minimum inhibitory concentration
Description: as §3, §4

[25] = test system: Escherichia coli K 12; assay: MIC by broth dilution (Table 8); conditions: K12, 20 h, read-out: Minimum inhibitory concentration
Description: as §3, §4

[26] = test system: Proteus mirabilis P-6; assay: MIC by broth dilution (Table 8); conditions: P6, 20 h, resistant to kanamycin, gentamicin and tobramycin, read-out: Minimum inhibitory concentration
Description: as §3, §4

[27] = test system: Klebsiella pneumoniae K-2; assay: MIC by broth dilution (Table 8); conditions: K2, 20 h, betalactamase producer, read-out: Minimum inhibitory concentration
Description: as §3, §4

O=C(Cc1cccs1)N[C@@H]1C(=O)N2C(C(=O)[O-])=C(C[n+]3ccccc3)CS[C@H]12 [Cephaloridine, cephaloridine]
MIC [1]: 0.05 µg/mL (≈ 0.12 µM)
MIC ([2]; Staphylococcus aureus): 0.04 µg/mL (≈ 0.0963 µM)
MIC [3]: 0.01 µg/mL (≈ 0.0241 µM)
MIC ([4]; Alcaligenes faecalis): 6.25 µg/mL (≈ 15 µM)
MIC ([5]; Citrobacter freundii): > 100 µg/mL
MIC ([6]; Pseudomonas aeruginosa): > 20 µg/mL
MIC ([7]; Enterobacter): > 100 µg/mL
MIC ([8]; Proteus vulgaris): > 20 µg/mL
MIC [9]: 50 µg/mL (≈ 120 µM)
MIC ([10]; Staphylococcus aureus): 0.04 µg/mL (≈ 0.0963 µM)
MIC ([11]; Streptococcus pyogenes): 0.01 µg/mL (≈ 0.0241 µM)
MIC ([12]; Proteus mirabilis): 10 µg/mL (≈ 24.1 µM)
MIC ([13]; Klebsiella pneumoniae): 10 µg/mL (≈ 24.1 µM)
MIC ([14]; Alcaligenes faecalis): 6.25 µg/mL (≈ 15 µM)
MIC ([15]; Citrobacter freundii): > 100 µg/mL
MIC ([16]; Enterobacter): 3.13 µg/mL (≈ 7.53 µM)
MIC ([17]; Staphylococcus aureus): 0.125 µg/mL (≈ 0.301 µM)
MIC [18]: > 100 µg/mL
MIC [19]: > 100 µg/mL
MIC [20]: > 100 µg/mL
MIC [21]: > 100 µg/mL
MIC [22]: > 100 µg/mL
MIC [23]: > 100 µg/mL
MIC [24]: 100 µg/mL (≈ 241 µM)
MIC ([25]; Escherichia coli): 2.5 µg/mL (≈ 6.02 µM)
MIC [26]: 12.5 µg/mL (≈ 30.1 µM)
MIC [27]: 6.25 µg/mL (≈ 15 µM)

CCC1C(=O)N2C(C(=O)O)=C(SCCNC(C)=O)CC12 (single isomer, unassigned) [Antibiotic PS-5]
MIC ([14]; Alcaligenes faecalis B-326): 0.78 µg/mL (≈ 2.61 µM)
MIC ([15]; Citrobacter freundii E-9, betalactamase producer): 3.13 µg/mL (≈ 10.5 µM)
MIC ([16]; Enterobacter sp. E-8, betalactamase producer): 3.13 µg/mL (≈ 10.5 µM)
MIC ([17]; Staphylococcus aureus Russell, PS-5 as sodium salt): 0.31 µg/mL
MIC [18]: 12.5 µg/mL (≈ 41.9 µM)
MIC [19]: 6.25 µg/mL (≈ 20.9 µM)
MIC [20]: 6.25 µg/mL (≈ 20.9 µM)
MIC [21]: 12.5 µg/mL (≈ 41.9 µM)
MIC ([22]; Proteus sp. P-22): 6.25 µg/mL (≈ 20.9 µM)
MIC [23]: 6.25 µg/mL (≈ 20.9 µM)
MIC [24]: 3.13 µg/mL (≈ 10.5 µM)
MIC ([25]; Escherichia coli K 12): 2.5 µg/mL (≈ 8.38 µM)
MIC [26]: 6.25 µg/mL (≈ 20.9 µM)
MIC [27]: 3.13 µg/mL (≈ 10.5 µM)

CCC1C(=O)N2C(C(=O)OC(c3ccccc3)(c3ccccc3)c3ccccc3)=C(SCCNC(C)=O)CC12 (single isomer, unassigned) [Trityl PS-5]
MIC ([1]; Sarcina lutea S-19, read-out: MIC): 0.27 µg/mL (≈ 0.499 µM)
MIC ([2]; Staphylococcus aureus Smith, read-out: MIC): 0.27 µg/mL (≈ 0.499 µM)
MIC ([3]; Diplococcus pneumoniae Type III, read-out: MIC): 0.08 µg/mL (≈ 0.148 µM)
MIC ([4]; Alcaligenes faecalis B-326, read-out: MIC): 1.25 µg/mL (≈ 2.31 µM)
MIC ([5]; Citrobacter freundii E-9, read-out: MIC): 5 µg/mL (≈ 9.25 µM)
MIC ([6]; Pseudomonas aeruginosa P-1, read-out: MIC): > 43 µg/mL
MIC ([7]; Enterobacter sp. E-8, read-out: MIC): 10 µg/mL (≈ 18.5 µM)
MIC ([8]; Proteus vulgaris P-5, read-out: MIC): 21.5 µg/mL (≈ 39.8 µM)
MIC ([9]; Proteus rettgeri P-7, read-out: MIC): 10 µg/mL (≈ 18.5 µM)
MIC ([10]; Staphylococcus aureus FDA 209p, read-out: MIC): 0.17 µg/mL (≈ 0.314 µM)
MIC ([11]; Streptococcus pyogenes NY-5, read-out: MIC): 0.17 µg/mL (≈ 0.314 µM)
MIC ([12]; Proteus mirabilis P-6, read-out: MIC): 21.5 µg/mL (≈ 39.8 µM)
MIC ([13]; Klebsiella pneumoniae K-2, read-out: MIC): 10.7 µg/mL (≈ 19.8 µM)
